The results in this text go back to patent US20170216252A1, “ANTI-BACTERIAL PYRUVATE KINASE MODULATOR COMPOUNDS, COMPOSITIONS, USES AND METHODS” (SIMON FRASER UNIVERSITY, priority 2014, published 2017).

The EC50 is the midpoint of the concentration-response curve. A low value points to greater potency. Usually MIC stands for the least concentration at which growth counts as inhibited. Usually IC50 stands for the concentration at which inhibition is half-maximal. A lower IC50 goes with inhibition by little substance.

One experiment has as its target T1, MRSA PK (Staphylococcus aureus, UniProt Q6GG09).
T1 construct: His tag (pET-28a(+) vector) (N); made in house; host or cells: E. coli BL-21 (DE3)
Briefly: MRSA PK activity, continuous LDH-coupled assay. Type of experiment: biochemical, S. aureus (MRSA strain Sanger 252). An outline of the steps: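 Activity was tracked as the 340 nm absorbance fall from NADH oxidation via coupled LDH, at 30 °C for ≤5 min. Reactions began on adding 15 nM recombinant His-tagged S. aureus PK, with inhibitor DMSO kept ≤1%. Four-parameter dose–response fitting gave IC50.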

In the next experiment the test system is S. aureus ATCC 29213. Kind of experiment: In vitro susceptibility, broth microdilution MIC. Type of experiment: cell-based, Staphylococcus aureus. The settings on record: tested at least in duplicate, differing values all given. A digest of the protocol: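 The MIC against S. aureus 29213 was determined by CLSI 2-fold serial broth microdilution in Mueller Hinton broth. Plates were incubated for 18–24 h at 37 °C and read at OD600 with background subtracted. The MIC was the lowest concentration giving complete growth inhibition versus compound-free wells.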
In general terms: In broth dilution the organism is exposed to a series of concentrations in liquid medium.

The mark [1] stands for this setting: Staphylococcus aureus, ATCC29213, Table 8, read-out: MIC.

Values after ≈ are worked out from the molar mass of the structure shown. Like-named read-outs stand apart in the source and are kept apart here. A value given as a limit tells only on which side of the number the result lay.

T1 sequence (Q6GG09 whole entry): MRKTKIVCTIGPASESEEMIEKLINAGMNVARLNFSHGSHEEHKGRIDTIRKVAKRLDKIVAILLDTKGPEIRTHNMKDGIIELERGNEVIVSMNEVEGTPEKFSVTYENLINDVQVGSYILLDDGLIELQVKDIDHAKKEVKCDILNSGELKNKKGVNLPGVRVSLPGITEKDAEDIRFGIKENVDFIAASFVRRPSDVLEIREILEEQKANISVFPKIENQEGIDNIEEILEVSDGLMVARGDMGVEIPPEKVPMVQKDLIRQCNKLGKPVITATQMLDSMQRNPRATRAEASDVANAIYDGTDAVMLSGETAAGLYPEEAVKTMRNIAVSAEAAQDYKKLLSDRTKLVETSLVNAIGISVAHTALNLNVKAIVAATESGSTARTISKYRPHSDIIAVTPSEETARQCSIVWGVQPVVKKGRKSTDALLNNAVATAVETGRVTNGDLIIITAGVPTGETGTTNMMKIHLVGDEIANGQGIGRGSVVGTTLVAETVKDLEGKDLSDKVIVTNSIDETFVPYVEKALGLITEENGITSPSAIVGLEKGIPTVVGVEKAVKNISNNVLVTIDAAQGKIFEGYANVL

On MRSA PK, `COC(=O)c1c(C(=O)Nc2ccc(Br)cc2)[nH]c2cc(Br)ccc12` [Compound 131, Methyl 6-bromo-2-((4-bromophenyl)carbamoyl)-1H-indole-3-carboxylate] showed an EC50 of 15 nM. Besides, the minimum inhibitory concentration (MIC) in the experiment with S. aureus ATCC 29213 (setting [1]) was greater than 64 µg/mL.
For `O=C(Nc1ccc(Br)cc1)c1[nH]c2cc(Br)ccc2c1C(=O)O` [Compound 132, 6-Bromo-2-((4-bromophenyl)carbamoyl)-1H-indole-3-carboxylic acid], the IC50 at MRSA PK is less than 50 nM. In the experiment on S. aureus ATCC 29213 (setting [1]), the minimum inhibitory concentration (MIC) was 16 µg/mL (≈ 36.5 µM).
For `COC(=O)c1c(C(=O)Nc2ccc(OC)cc2)[nH]c2cc(Br)ccc12` [Compound 133, Methyl 6-bromo-2-((4-methoxyphenyl)carbamoyl)-1H-indole-3-carboxylate], in that order: less than 50 nM and greater than 64 µg/mL.
Taken in the same sequence, the figures for `COc1ccc(NC(=O)c2[nH]c3cc(Br)ccc3c2C(=O)O)cc1` [Compound 134, 6-Bromo-2-((4-methoxyphenyl)carbamoyl)-1H-indole-3-carboxylic acid] were less than 50 nM and 64 µg/mL (≈ 164 µM).
On MRSA PK, `COC(=O)c1c(C(=O)Nc2ccc(OC)nc2)[nH]c2cc(Br)ccc12` [Compound 135, Methyl 6-bromo-2-((6-methoxypyridin-3-yl)carbamoyl)-1H-indole-3-carboxylate] came in with an EC50 of 31.7 nM. Further, in the experiment with S. aureus ATCC 29213 (setting [1]), the minimum inhibitory concentration (MIC) is greater than 64 µg/mL.
`COc1ccc(NC(=O)c2[nH]c3cc(Br)ccc3c2C(=O)O)cn1` [Compound 136, 6-Bromo-2-((6-methoxypyridin-3-yl)carbamoyl)-1H-indole-3-carboxylic acid]: the half-inhibitory concentration (IC50) against MRSA PK lay within 100 to 1000 nM. Also, the MIC in the experiment with S. aureus ATCC 29213 (setting [1]) is greater than 64 µg/mL.
As for `COC(=O)c1c(C(=O)Nc2ccc(Cl)cn2)[nH]c2cc(Br)ccc12` [Compound 137, Methyl 6-bromo-2-((5-chloropyridin-2-yl)carbamoyl)-1H-indole-3-carboxylate], the response on MRSA PK was half-maximal at 13.2 nM (EC50). Also, in the experiment on S. aureus ATCC 29213 (setting [1]), the minimal inhibitory concentration (MIC) is greater than 64 µg/mL.
With `COC(=O)c1c(C(=O)Nc2ccc(Cl)nc2)[nH]c2cc(Br)ccc12` [Compound 138, Methyl 6-bromo-2-((6-chloropyridin-3-yl)carbamoyl)-1H-indole-3-carboxylate], the half-inhibitory concentration (IC50) against MRSA PK was less than 50 nM. Also, in the experiment on S. aureus ATCC 29213 (setting [1]), the MIC is greater than 64 µg/mL.
Taken in the same sequence, the figures for `O=C(Nc1ccc(Cl)nc1)c1[nH]c2cc(Br)ccc2c1C(=O)O` [Compound 139, 6-Bromo-2-((6-chloropyridin-3-yl)carbamoyl)-1H-indole-3-carboxylic acid] were 50 to 100 nM and greater than 64 µg/mL.
Taken in the same sequence, the figures for `Clc1ccc(C#Cc2cc3ccc(Br)cc3[nH]2)nc1` [Compound 141, 6-bromo-2-((5-chloropyridin-2-yl)ethynyl)-1H-indole] were 100 to 1000 nM and greater than 64 µg/mL.
For `Clc1cnc(C#Cc2cc3ccc(Br)cc3[nH]2)nc1` [Compound 142, 6-Bromo-2-((5-chloropyrimidin-2-yl)ethynyl)-1H-indole], in that order: 50 to 100 nM and greater than 64 µg/mL.
On MRSA PK, `Brc1ccc2cc(CNCc3ccccc3)[nH]c2c1` [Compound 146, N-Benzyl-1-(6-bromo-1H-indol-2-yl)methanamine] came in with an IC50 greater than 1000 nM. Also, the minimal inhibitory concentration (MIC) in the experiment on S. aureus ATCC 29213 (setting [1]) came to 32 µg/mL (≈ 102 µM).
`Clc1ccc(NCc2cc3ccc(Br)cc3[nH]2)cc1` [Compound 147, N-((6-Bromo-1H-indol-2-yl)methyl)-4-chloroaniline]: the EC50 on MRSA PK amounted to 244 nM. The MIC in the experiment with S. aureus ATCC 29213 (setting [1]) was greater than 64 µg/mL.
At MRSA PK, `Brc1ccc2cc(CSc3nc4ccccc4[nH]3)[nH]c2c1` [Compound 148, 2-(((6-Bromo-1H-indol-2-yl)methyl)thio)-1H-benzo[d]imidazole] gave an IC50 greater than 1000 nM. Moreover, the MIC in the experiment with S. aureus ATCC 29213 (setting [1]) is 32 µg/mL (≈ 89.3 µM).
For the compound `Brc1ccc2cc(CSCc3ccccc3)[nH]c2c1` [Compound 149, 2-((Benzylthio)methyl)-6-bromo-1H-indole], at MRSA PK, the 50% inhibitory concentration (IC50) was greater than 1000 nM. In addition, the MIC in the experiment with S. aureus ATCC 29213 (setting [1]) is greater than 64 µg/mL.
For `O=C(O)c1c(/C=C/c2cc(Cl)cc(Cl)c2)[nH]c2cc(Br)ccc12` [Compound 150, (E)-6-Bromo-2-(3,5-dichlorostyryl)-1H-indole-3-carboxylic acid], in that order: greater than 1000 nM and 8 µg/mL (≈ 19.5 µM).
For `O=C(O)c1c(/C=C/c2ccc(Cl)nc2)[nH]c2cc(Br)ccc12` [Compound 152, (E)-6-Bromo-2-(2-(6-chloropyridin-3-yl)vinyl)-1H-indole-3-carboxylic acid], in that order: greater than 1000 nM and 64 µg/mL (≈ 169 µM).
Taken in the same sequence, the figures for `O=C(O)c1c(/C=C/c2ccc(Br)cn2)[nH]c2cc(Br)ccc12` [Compound 153, (E)-6-Bromo-2-(2-(5-bromopyridin-2-yl)vinyl)-1H-indole-3-carboxylic acid] were 100 to 1000 nM and 32 µg/mL (≈ 75.8 µM).
As to `Clc1ccc(CCc2nc3ccc(Br)cc3[nH]2)cc1` [Compound 154, 6-bromo-2-(4-chlorophenethyl)-1H-benzo[d]imidazole], the half-maximal inhibitory concentration (IC50) against MRSA PK was greater than 1000 nM. Also, the MIC with S. aureus ATCC 29213 (setting [1]) was found to be 16 µg/mL (≈ 47.7 µM); in the experiment on S. aureus ATCC 29213 (Table 8), 32 µg/mL (≈ 95.3 µM).
At MRSA PK, `COC(=O)c1cc(Br)cc2[nH]c(/C=C/c3ccc(Cl)cc3)cc12` [Compound 157, (E)-Methyl 6-bromo-2-(4-chlorostyryl)-1H-indole-4-carboxylate] returned an IC50 greater than 1000 nM. Also, the minimal inhibitory concentration (MIC) with S. aureus ATCC 29213 (setting [1]) was greater than 64 µg/mL.
`O=C(O)c1cc(Br)cc2[nH]c(/C=C/c3ccc(Cl)cc3)cc12` [Compound 158, (E)-6-Bromo-2-(4-chlorostyryl)-1H-indole-4-carboxylic acid]: the 50% inhibitory concentration (IC50) on MRSA PK was greater than 1000 nM. Further, in the experiment on S. aureus ATCC 29213 (setting [1]), the MIC worked out at 32 µg/mL (≈ 85 µM).
Taken in the same sequence, the figures for `O=C(O)c1cc(Br)cc2[nH]c(CCc3ccc(Cl)cc3)cc12` [Compound 159, 6-bromo-2-(4-chlorophenethyl)-1H-indole-4-carboxylic acid] were 100 to 1000 nM and 64 µg/mL (≈ 169 µM).
For `Cc1c(/C=C/c2ccc(Cl)cc2)[nH]c2cc(Br)ccc12` [Compound 160, (E)-6-bromo-2-(4-chlorostyryl)-3-methyl-1H-indole], in that order: less than 50 nM and greater than 64 µg/mL.
Taken in the same sequence, the figures for `Fc1cc2cc(/C=C/c3ccc(Cl)cc3)[nH]c2cc1Br` [Compound 161, (E)-6-Bromo-2-(4-chlorostyryl)-5-fluoro-1H-indole] were less than 50 nM and greater than 64 µg/mL.
The compound `O=C(O)c1c(-c2cc3cc(Cl)ccc3[nH]2)[nH]c2cc(Br)ccc12` [Compound 162, 6-bromo-5′-chloro-1H,1′H-[2,2′-biindole]-3-carboxylic acid] yielded a concentration for half-maximal inhibition (IC50) against MRSA PK of less than 50 nM. For the same compound, the MIC with S. aureus ATCC 29213 (setting [1]) turned out to be 4 µg/mL (≈ 10.3 µM).
For `COC(=O)c1cc(Br)cc2[nH]c(-c3cc4c(C(=O)OC)cc(Br)cc4[nH]3)cc12` [Compound 163, Dimethyl 6,6′-dibromo-1H,1′H-[2,2′-biindole]-4,4′-dicarboxylate], in that order: 50 to 100 nM and greater than 64 µg/mL.
Regarding `Clc1ccc2[nH]c(-c3cc4ccc(Br)cc4[nH]3)nc2c1` [Compound 164, 2-(6-bromo-1H-indol-2-yl)-5-chloro-1H-benzo[d]imidazole], at MRSA PK, the 50% inhibitory concentration (IC50) was less than 50 nM. In addition, the minimum inhibitory concentration (MIC) in the experiment on S. aureus ATCC 29213 (setting [1]) is 1 µg/mL (≈ 2.89 µM).
Taken in the same sequence, the figures for `COC(=O)c1c(NCc2ccc(Cl)cc2)[nH]c2cc(Br)ccc12` [Compound 165, Methyl 6-bromo-2-(4-chlorobenzylamino)-1H-indole-3-carboxylate] were greater than 1000 nM and 4 µg/mL (≈ 10.2 µM).
